Reference: patent publication US8809341B2, “2,4-pyrimidinediamine compounds and uses as anti-proliferative agents” (Rigel Pharmaceuticals, Inc., priority 2003, dated 2014)
pIC50: −log10 of the molar value.

Key:
A549 cells = experiment: in vitro antiproliferation assay, A549 (lung); type: cell-based
Summary of the method: (§1)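 IC50 values came from standard antiproliferation testing in cultured tumour cells; the A549 and H1299 lines are of lung origin.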

H1299 cells = experiment: in vitro antiproliferation assay, H1299 (lung); type: cell-based
Summary of the method: as §1

[1] = IC50 class against A549 (lung) tumor cells
[2] = IC50 class against H1299 (lung) tumor cells
[3] = A549 (lung) cells, in vitro antiproliferation
[4] = H1299 (lung) cells, in vitro antiproliferation
[5] = Homo sapiens, IC50 class against A549 (lung) tumor cells
[6] = Homo sapiens, NCI-H1299, IC50 class against H1299 (lung) tumor cells
[7] = in vitro antiproliferation, A549 (lung) cells, Table 4, compounds with no designated stereochemistry tested as racemate
[8] = in vitro antiproliferation, H1299 (lung) cells, Table 4, compounds with no designated stereochemistry tested as racemate
[9] = Table 5, in vitro antiproliferation, A549 (lung) cells
[10] = Table 5, in vitro antiproliferation, H1299 (lung) cells
[11] = A549 (lung) cells, antiproliferation
[12] = H1299 (lung) cells, antiproliferation
[13] = Table 7, in vitro antiproliferation, A549 (lung) cells
[14] = Table 7, in vitro antiproliferation, H1299 (lung) cells
[15] = Homo sapiens, A549 (lung) cells
[16] = Homo sapiens, NCI-H1299, H1299 (lung) cells

CC(=O)N1CCN(c2ccc(Nc3ncc(F)c(NC4CCC4)n3)cc2)CC1 [compound 154]
pIC50 (A549 cells; [1]): ≥ 4.70
pIC50 (H1299 cells; [2]): ≥ 4.70

COc1ccc(Nc2nc(Nc3cc(Cl)cc(Cl)c3)ncc2F)cc1Cl [compound 808]
pIC50 (A549 cells; [3]): ≥ 4.70
pIC50 (H1299 cells; [4]): ≥ 4.70

CN1CCN(c2ccc(Nc3ncc(F)c(Nc4cc(C5CC5)[nH]n4)n3)cc2C(F)(F)F)CC1 [compound 214]
pIC50 (A549 cells; [5]): ≥ 4.70
pIC50 (H1299 cells; [6]): ≥ 4.70

Fc1cnc(Nc2cccc(N3CCOCC3)c2)nc1Nc1cccc(Nc2ncc[nH]2)c1 [compound 1054]
pIC50 (A549 cells; [5]): ≥ 4.70
pIC50 (H1299 cells; [6]): ≥ 4.70

CNC(=O)COc1cccc(Nc2ncc(F)c(Nc3ccc4c(c3)N(C)C(=O)CO4)n2)c1 [compound 299]
pIC50 (A549 cells; [7]): ≥ 4.70
pIC50 (H1299 cells; [8]): < 4.70

Oc1cccc(Nc2nc(Nc3ccc(OC(F)(F)F)c(Cl)c3)ncc2F)c1 [compound 781]
pIC50 (A549 cells; [3]): ≥ 4.70
pIC50 (H1299 cells; [4]): ≥ 4.70

CNC(=O)COc1c(C)cc(Nc2ncc(F)c(N(C)c3ccc4c(c3)OC(F)(F)C(F)(F)O4)n2)cc1C [compound 574]
pIC50 (A549 cells; [9]): ≥ 4.70
pIC50 (H1299 cells; [10]): ≥ 4.70

Cc1cc(C)cc(Nc2ncc(F)c(N(C)c3cc(C)c(Cl)c(C)c3)n2)c1 [compound 912]
pIC50 (A549 cells; [11]): < 4.70
pIC50 (H1299 cells; [12]): < 4.70

CC(=O)N1CCN(c2cccc(Nc3ncc(F)c(Nc4cccc(Nc5ncc[nH]5)c4)n3)c2)CC1 [compound 1059]
pIC50 (A549 cells; [5]): < 4.70
pIC50 (H1299 cells; [6]): < 4.70

CCN1CCN(c2ccc(Nc3ncc(F)c(NC4CCCC4)n3)cn2)CC1 [compound 168]
pIC50 (A549 cells; [1]): ≥ 4.70
pIC50 (H1299 cells; [2]): ≥ 4.70

Cc1cc(C)cc(Nc2nc(Nc3cc(Cl)cc(Cl)c3)ncc2F)c1 [compound 898]
pIC50 (A549 cells; [11]): < 4.70
pIC50 (H1299 cells; [12]): < 4.70

CNC(=O)c1cc2cccc(Nc3ncc(F)c(Nc4ccc(OC)c(OC)c4)n3)c2[nH]1 [compound 665]
pIC50 (A549 cells; [13]): ≥ 4.70
pIC50 (H1299 cells; [14]): ≥ 4.70

Cc1cc(C)cc(Nc2ncc(F)c(Nc3ccc4c(c3)NC(=O)C(C)O4)n2)c1 (stereo not drawn) [compound 229]
pIC50 (A549 cells; [7]): ≥ 4.70
pIC50 (H1299 cells; [8]): ≥ 4.70

CN1CCN(c2cccc(Nc3ncc(F)c(NC(C)(C)C)n3)c2)CC1 [compound 221]
pIC50 (A549 cells; [1]): ≥ 4.70
pIC50 (H1299 cells; [2]): ≥ 4.70

CNC(=O)c1cc2cccc(Nc3ncc(F)c(Nc4ccc5c(c4)OCO5)n3)c2[nH]1 [compound 655]
pIC50 (A549 cells; [13]): ≥ 4.70
pIC50 (H1299 cells; [14]): ≥ 4.70

COc1cc(Nc2nc(Nc3cccc(O)c3)ncc2F)cc(OC)c1 [compound 768]
pIC50 (A549 cells; [3]): ≥ 4.70
pIC50 (H1299 cells; [4]): ≥ 4.70

COc1cc(Nc2ncc(F)c(Nc3cc(C)cc(C)c3)n2)cc(OC)c1OC [compound 895]
pIC50 (A549 cells; [11]): ≥ 4.70
pIC50 (H1299 cells; [12]): ≥ 4.70

CC(=O)N1CCN(c2cccc(Nc3ncc(F)c(N(C)C4CCC4)n3)c2)CC1 [compound 128]
pIC50 (A549 cells; [1]): ≥ 4.70
pIC50 (H1299 cells; [2]): ≥ 4.70

CN(c1ccc2c(c1)OCCO2)c1nc(N(CCO)CCO)ncc1F [compound 1042]
pIC50 (A549 cells; [1]): < 4.70
pIC50 (H1299 cells; [2]): ≥ 4.70

COc1cc(Nc2ncc(F)c(Nc3cc(OC)cc(C(F)(F)F)c3)n2)cc(C(F)(F)F)c1 [compound 819]
pIC50 (A549 cells; [3]): ≥ 4.70
pIC50 (H1299 cells; [4]): ≥ 4.70

Cc1ccc(F)c(Nc2ncc(F)c(Nc3ccc4c(c3)OCCO4)n2)c1 [compound 1048]
pIC50 (A549 cells; [1]): ≥ 4.70
pIC50 (H1299 cells; [2]): ≥ 4.70

Cc1cc(C)cc(Nc2ncc(F)c(Nc3cccc(OC(F)(F)F)c3)n2)c1 [compound 813]
pIC50 (A549 cells; [3]): < 4.70
pIC50 (H1299 cells; [4]): < 4.70

CCCCn1ncc2ccc(Nc3ncc(F)c(Nc4ccc(Cl)c(Cl)c4)n3)cc21 [compound 1087]
pIC50 (A549 cells; A549 (lung) cells): ≥ 4.70
pIC50 (H1299 cells; H1299 (lung) cells): ≥ 4.70

COc1cc(Nc2nc(Nc3ccc(C(N)=O)cc3)ncc2F)ccc1Cl [compound 1032]
pIC50 (A549 cells; [11]): < 4.70
pIC50 (H1299 cells; [12]): < 4.70

COC(=O)c1cc(Nc2ncc(F)c(Nc3ccc4c(c3)OCCO4)n2)cc(-c2ncco2)c1 [compound 558]
pIC50 (A549 cells; [9]): ≥ 4.70
pIC50 (H1299 cells; [10]): ≥ 4.70

COC(=O)c1cc2cc(Nc3ncc(F)c(N(C)c4ccc(OC)c(Cl)c4)n3)ccc2o1 [compound 671]
pIC50 (A549 cells; [13]): < 4.70
pIC50 (H1299 cells; [14]): < 4.70

Fc1cnc(Nc2cccc(N3CCOCC3)c2)nc1Nc1ccc2c(n1)NCCO2 [compound 605]
pIC50 (A549 cells; [1]): ≥ 4.70
pIC50 (H1299 cells; [2]): ≥ 4.70

O=C1Nc2ccc(Nc3nc(Nc4cccc(-c5ncco5)c4)ncc3F)cc2OC1CCO (stereo not drawn) [compound 1145]
pIC50 (A549 cells; [15]): ≥ 4.70
pIC50 (H1299 cells; [16]): ≥ 4.70

CC(=O)N1CCN(c2ccc(Nc3ncc(F)c(Nc4ccc5c(n4)NCCO5)n3)cc2)CC1 [compound 603]
pIC50 (A549 cells; [1]): ≥ 4.70
pIC50 (H1299 cells; [2]): ≥ 4.70

COC(=O)c1cc2cc(Nc3ncc(F)c(N(C)c4cc(OC)cc(OC)c4)n3)ccc2o1 [compound 662]
pIC50 (A549 cells; [13]): < 4.70
pIC50 (H1299 cells; [14]): ≥ 4.70

CCCCn1ncc2ccc(Nc3ncc(F)c(Nc4ccc(OC)c(Cl)c4)n3)cc21 [compound 1086]
pIC50 (A549 cells; A549 (lung) cells): ≥ 4.70
pIC50 (H1299 cells; H1299 (lung) cells): ≥ 4.70

COc1ccc(Nc2nc(Nc3cc(C)c(C)c(C)c3)ncc2F)cc1Cl [compound 811]
pIC50 (A549 cells; [3]): ≥ 4.70
pIC50 (H1299 cells; [4]): < 4.70

CC(C)(CC1CC1)n1ncc2ccc(Nc3ncc(F)c(Nc4ccc(Cl)c(Cl)c4)n3)cc21 [compound 1111]
pIC50 (A549 cells; A549 (lung) cells): ≥ 4.70
pIC50 (H1299 cells; H1299 (lung) cells): ≥ 4.70

CC(=O)N1CCN(c2ccc(Nc3ncc(F)c(Nc4ccc5c(c4)OC(F)(F)C(F)(F)O5)n3)cc2)CC1 [compound 553]
pIC50 (A549 cells; [9]): ≥ 4.70
pIC50 (H1299 cells; [10]): ≥ 4.70

Cc1cc(C)cc(Nc2ncc(F)c(Nc3ccc4c(c3)OC(F)(F)C(F)(F)O4)n2)c1 [compound 537]
pIC50 (A549 cells; [9]): ≥ 4.70
pIC50 (H1299 cells; [10]): ≥ 4.70

CNC(=O)COc1ccc(Nc2nc(Nc3ccc(OC)c(Cl)c3)ncc2F)cc1Cl [compound 917]
pIC50 (A549 cells; [11]): ≥ 4.70
pIC50 (H1299 cells; [12]): ≥ 4.70

CN(c1ccc2c(c1)OCCO2)c1nc(NCCO)ncc1F [compound 1040]
pIC50 (A549 cells; [1]): ≥ 4.70
pIC50 (H1299 cells; [2]): ≥ 4.70

COc1cc(Nc2ncc(F)c(Nc3cccc(Nc4ncc[nH]4)c3)n2)cc(OC)c1 [compound 1053]
pIC50 (A549 cells; [5]): ≥ 4.70
pIC50 (H1299 cells; [6]): ≥ 4.70

CC(C)(C)c1ccc(Nc2ncc(F)c(Nc3ccc(C(C)(C)C)cc3)n2)cc1 [compound 718]
pIC50 (A549 cells; [3]): < 4.70
pIC50 (H1299 cells; [4]): < 4.70

COc1cc(Nc2ncc(F)c(N(C)c3ccc(OC)c(OC)c3)n2)cc(OC)c1 [compound 865]
pIC50 (A549 cells; [3]): ≥ 4.70
pIC50 (H1299 cells; [4]): ≥ 4.70

CN1CCN(c2ccc(Nc3ncc(F)c(NC4CCCCC4)n3)cc2)CC1 [compound 155]
pIC50 (A549 cells; [1]): ≥ 4.70
pIC50 (H1299 cells; [2]): ≥ 4.70

Cc1ccc(CNc2ncc(F)c(Nc3ccc4c(c3)OCCO4)n2)cc1Cl [compound 1146]
pIC50 (A549 cells; [15]): ≥ 4.70
pIC50 (H1299 cells; [16]): < 4.70

CNC(=O)COc1c(C)cc(Nc2ncc(F)c(N(C)c3ccc(OC)c(Cl)c3)n2)cc1C [compound 905]
pIC50 (A549 cells; [11]): ≥ 4.70
pIC50 (H1299 cells; [12]): ≥ 4.70

COc1ccc(C)c(Nc2ncc(F)c(Nc3ccc4c(c3)OCCO4)n2)c1 [compound 1047]
pIC50 (A549 cells; [1]): ≥ 4.70
pIC50 (H1299 cells; [2]): ≥ 4.70

CNC(=O)c1ccc(Nc2ncc(F)c(N(C)c3cc(C)c(Cl)c(C)c3)n2)cc1Cl [compound 921]
pIC50 (A549 cells; [11]): ≥ 4.70
pIC50 (H1299 cells; [12]): ≥ 4.70

CCOc1ccc(Nc2nc(Nc3cccc(OCC(=O)NC)c3)ncc2F)cc1 [compound 772]
pIC50 (A549 cells; [3]): ≥ 4.70
pIC50 (H1299 cells; [4]): ≥ 4.70

CCCn1ncc2cc(Nc3ncc(F)c(Nc4ccc(Cl)c(Cl)c4)n3)ccc21 [compound 1075]
pIC50 (A549 cells; A549 (lung) cells): < 4.70
pIC50 (H1299 cells; H1299 (lung) cells): < 4.70

COc1ccc(Nc2ncc(F)c(Nc3ccc(OCCCN4CCOCC4)c(C)c3)n2)cc1OC [compound 945]
pIC50 (A549 cells; [11]): ≥ 4.70
pIC50 (H1299 cells; [12]): ≥ 4.70

COc1ccc(Nc2nc(Nc3cccc(N4CCN(C(C)=O)CC4)c3)ncc2F)cc1OC [compound 862]
pIC50 (A549 cells; [3]): ≥ 4.70
pIC50 (H1299 cells; [4]): ≥ 4.70

CN(c1ccc2c(c1)OC(F)(F)C(F)(F)O2)c1nc(Nc2cccc(-c3ncco3)c2)ncc1F [compound 572]
pIC50 (A549 cells; [9]): ≥ 4.70
pIC50 (H1299 cells; [10]): ≥ 4.70

NC(=O)c1ccc(Nc2ncc(F)c(Nc3ccc(C(N)=O)cc3)n2)cc1 [compound 1029]
pIC50 (A549 cells; [11]): < 4.70
pIC50 (H1299 cells; [12]): < 4.70

CC1(C)Oc2ccc(Nc3nc(Nc4ccc5c(cnn5C(C)(C)CC5CCCCC5)c4)ncc3F)cc2NC1=O [compound 1092]
pIC50 (A549 cells; A549 (lung) cells): ≥ 4.70
pIC50 (H1299 cells; H1299 (lung) cells): ≥ 4.70

CCN1CCN(c2ccc(Nc3ncc(F)c(NC4CCCCC4)n3)cn2)CC1 [compound 169]
pIC50 (A549 cells; [1]): ≥ 4.70
pIC50 (H1299 cells; [2]): ≥ 4.70

COc1cc(C(N)=O)c(Nc2ncc(F)c(N(C)C3CCC3)n2)cc1OC(=O)c1ccccc1 [compound 1162]
pIC50 (A549 cells; [15]): ≥ 4.70
pIC50 (H1299 cells; [16]): ≥ 4.70
